One assay relates to Th17 cells. The assay is described as follows: Differentiation inhibition experiments on Th17 cells (IL-17A content in supernatant by ELISA). Type of assay: cell-based, C57 mouse. The conditions noted are these: 1 μM compound; differentiation of mouse naïve CD4+ T cells to Th17, IL-17A ELISA; read-out: Inhibition Rate (1 μM). On the procedure: 5 μg/mL mouse CD3 antibody (purchased from BD) was coated on a 96-well plate (37° C., 2-6 hours) and stored for future use. C57 mouse lymph gland naïve CD4 positive T cells were separated using CD4+ T cell isolation kit II (purchased from MACS), and were inoculated to the coated 96-well plate at 5×10^5 cells/well/100 μL. The test sample was gradient diluted with RMPI-1640 culture medium (Gibco, 22440), and was made to be 4 times of the final concentration (starting from 1 μM, 10 times dilution, setting 6 drug concentrations). The diluted test sample was added at 50 μL/well to the test well inoculated with cells. To each of the positive and negative control wells was added 50 μL RMPI-1640 culture medium. To each of the test wells and the positive control wells was further added 50 μL mixed solution of activators (20 ug/mL mouse CD28 antibody (purchased from BD); 40 ug/mL mouse IL-4 antibody (purchased from BD); 40 ug/mL mouse IFNγ antibody (purchased from BD); 4 ng/mL mouse TGF-β1 (purchased from R&D); 200 ng/mL mouse IL-6 (purchased from R&D); 20 ng/mL mouse IL-23 (purchased from R&D)) having a 4-fold final concentration; to the negative control well was added 50 μL RMPI-1640 culture medium. The loaded 96-well plate was placed in an incubator at 37° C., 5% CO2 and was cultured for 66 hours, followed by adding to each well 50 uL mixed solution of PMA (purchased from Sigma, working concentration: 50 ng/mL) and Ionomycin (purchased from Sigma, working concentration: 1 ug/mL), and culturing at 37° C. for another 6 hours. After the culture was completed, a cell culture supernatant was taken, and the IL-17A content in the supernatant was determined using mouse IL-17A ELISA kit (purchased from Dakewe), and the inhibition rate and the IC50 value were calculated. The specific operation followed the kit specification (see below):
(1) Determining the number of required strips according to the number of the test wells (blank and standard); taking out the Washing buffer (50×) and the ready-to-use solution from the kit 20 min in advance to balance to room temperature.
(2) Loading samples: adding diluted Cytokine standard to the standard well at 100 μL/well, adding the sample to the sample well at 100 μL/well, setting a blank well, in which Dilution buffer R (1×) was used instead of the sample and the standard.
(3) Adding testing antibody: adding diluted Biotinylated antibody at 50 μL/well; covering with a sealing film after mixing uniformly, and incubating at 37° C. for 90 min.
(4) Washing the plate: deducting the liquid in the well, adding 1× washing buffer at 300 μL/well; maintain for 1 min, then discarding the liquid in the well; repeating 4 times, each time deducting to dryness on filter pater.
(5) Adding enzyme: adding diluted Streptavidin-HRP at 100 μL/well; covering with a sealing film, and incubating at 37° C. for 30 min.
(6) Washing the plate: repeating […].
(7) Color development: adding TMB at 100 μL/well, incubating at 37° C. in a dark place for 5-30 min, and determining to terminate the reaction according to the depth of the color in the well (dark blue). Normally, a good effect can be achieved by color development for 10-20 min.
(8) Terminating the reaction: rapidly adding a stop solution at 100 μL/well to terminate the reaction.
Reading the plate: 10 min after termination, reading the value using a measurement wavelength of 450 nm.
On the technique in general: In an ELISA, binding on a coated surface is turned into a signal by an enzyme label.

A further assay concerns the target RORγ-LBD (Homo sapiens (Human), UniProt P51449). The assay is described as follows: LanthaScreen TR-FRET screening of RORγ-LBD / co-activator (Fluorescein-D22) interaction. The conditions noted are these: read-out: IC50 Values; TR-FRET, 2 nM RORγ-LBD, 150 nM Fluorescein-D22 co-activator.

RORγ-LBD, sequence (P51449 269-508): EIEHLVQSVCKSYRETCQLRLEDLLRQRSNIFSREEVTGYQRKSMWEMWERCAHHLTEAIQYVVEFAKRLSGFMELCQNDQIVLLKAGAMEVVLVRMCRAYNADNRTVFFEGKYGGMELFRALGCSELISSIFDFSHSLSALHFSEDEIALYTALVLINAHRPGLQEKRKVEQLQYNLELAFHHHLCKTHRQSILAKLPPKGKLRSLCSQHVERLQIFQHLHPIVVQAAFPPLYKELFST

On to `O=C(O)c1ccc(N2C(=O)/C(=C/c3c(Cl)cccc3C3CC3)c3c(F)cccc32)cc1` [Example 16B, (cis)-4-(3-(2-chloro-6-cyclopropyl-benzylidene)-4-fluoro-indolin-2-on-1-yl)-benzoic acid], for which the inhibition (commonly the percentage by which the read-out fell short of the control) at 1 µM in the assay on Th17 cells was greater than 50%. Moreover, the half-maximal inhibitory concentration (IC50) (usually the concentration that gives 50% inhibition) at RORγ-LBD was less than 0.1 µM.
Taken in the same sequence, the figures for `Cc1cccc2c1/C(=C/c1c(Cl)cccc1C1CC1)C(=O)N2c1ccc(C(=O)O)cc1` [Example 2A, (trans)-4-(3-(2-chloro-6-cyclopropyl-benzylidene)-4-methylindolin-2-on-1-yl)-benzoic acid] were greater than 50% and less than 0.1 µM.
As to `Cc1cccc(Cl)c1/C=C1\C(=O)N(c2ccc(C(=O)O)c(O)c2)c2cccc(C)c21` [Example 10, (trans)-4-(3-(2-chloro-6-methyl-benzylidene)-4-methylindolin-2-on-1-yl)-2-hydroxybenzoic acid], in the assay with Th17 cells, the inhibition at 1 µM was greater than 50%. At RORγ-LBD, the half-maximal inhibitory concentration (IC50) is less than 0.1 µM.
In the same order, the values of `O=C(O)c1ccc(N2C(=O)/C(=C\c3c(Cl)cccc3Cl)c3c(F)cccc32)cc1` [Example 15A, (trans)-4-(3-(2,6-dichloro-benzylidene)-4-fluoro-indolin-2-on-1-yl)-benzoic acid] are greater than 50% and less than 0.1 µM.
Turning to `COc1cccc(Cl)c1/C=C1\C(=O)N(c2ccc(C(=O)O)c(O)c2)c2cccc(C)c21` [Example 3, (trans)-4-(3-(2-chloro-6-methoxy-benzylidene)-4-methylindolin-2-on-1-yl)-2-hydroxybenzoic acid], the inhibition at 1 µM in the assay on Th17 cells is greater than 50%. Besides, the 50% inhibitory concentration (IC50) on RORγ-LBD is less than 0.1 µM.
Taken in the same sequence, the figures for `Cc1cccc2c1/C(=C/c1c(Cl)cccc1Cl)C(=O)N2c1ccc(C(=O)O)c(O)c1` [Example 4, (trans)-4-(3-(2,6-dichloro-benzylidene)-4-methylindolin-2-on-1-yl)-2-hydroxybenzoic acid] were greater than 50% and less than 0.1 µM.
On to `O=C(O)c1ccc(N2C(=O)/C(=C/c3c(Cl)cccc3Cl)c3c(F)cccc32)cc1` [Example 15B, (cis)-4-(3-(2,6-dichloro-benzylidene)-4-fluoro-indolin-2-on-1-yl)-benzoic acid], for which, in the assay with Th17 cells, the inhibition at 1 µM is less than 50%. In addition, the IC50 at RORγ-LBD is less than 0.1 µM.
In the case of `Cc1cccc2c1/C(=C/c1c(Cl)cccc1C1CC1)C(=O)N2c1ccc(C(=O)O)c(O)c1` [Example 1, (trans)-4-(3-(2-chloro-6-cyclopropyl-benzylidene)-4-methylindolin-2-on-1-yl)-2-hydroxy benzoic acid], the inhibition at 1 µM with Th17 cells was greater than 50%. Besides, the IC50 on RORγ-LBD is less than 0.1 µM.

These data come from patent publication US10322108B2, “N-benzoate group substituted benzopyrroline-2-one derivative and use thereof” (BEIJING HANMI PHARMACEUTICAL CO., LTD., priority 2015, dated 2019).
